Among the test systems are PC-3 prostate; HL-60(TB) leukemia; SK-MEL-5 melanoma; UACC-257 melanoma; NCI-H460 lung; OVCAR-8 ovarian; COLO 205 colon; HS 578T breast; HCC-2998 colon; HOP-92 NSCLC.
Assay in all cases: growth of human tumour cells (NCI), 48 h

Several values for one entry are separate records, joined by “and”; a condition that tells them apart may be missing. Equal entries are not always repeated.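 Method: 48-hour compound exposure of cells in 96-well plates, five concentrations, linear interpolation of endpoints. GI50 = concentration required for 50% inhibition of growth. The concentration for full growth arrest is given as TGI.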

On to `CC(C)(C)NC(C1=CC(C)(C)c2ccccc2C1=O)c1ccccc1` (configuration not stated), for which the GI50 is 1.63 µM with PC-3 prostate; 0.868 µM with HL-60(TB) leukemia; 1.52 µM with SK-MEL-5 melanoma; 1.42 µM with UACC-257 melanoma; 1.93 µM in the test with NCI-H460 lung; 1.74 µM in the test with OVCAR-8 ovarian. Moreover, the GI50 is 1.35 µM in the test on COLO 205 colon, 1.43 µM with HS 578T breast and 1.66 µM with HCC-2998 colon. Moreover, the TGI with PC-3 prostate was 3.42 µM; in the test with HL-60(TB) leukemia, 2.9 µM; in the test with SK-MEL-5 melanoma, 2.84 µM; with UACC-257 melanoma, 2.94 µM; with NCI-H460 lung, 4.58 µM; in the test on OVCAR-8 ovarian, 4.19 µM. In addition, the TGI is 2.63 µM in the test on COLO 205 colon, 6.08 µM in the test on HS 578T breast and 3.1 µM with HCC-2998 colon.
For the compound `Cn1nccc1Nc1nccc(-c2cc3c(s2)C(C)(C)N(CCN2CCOCC2)C3=O)n1`, the GI50 in the test on PC-3 prostate is 28.8 µM; in the test with HL-60(TB) leukemia it was 0.499 µM; in the test on SK-MEL-5 melanoma it was 1.31 µM; with UACC-257 melanoma, 0.301 µM; with NCI-H460 lung it was 21.4 µM; in the test with OVCAR-8 ovarian it was 24.3 µM. Also, the figures for the GI50 in the test on COLO 205 colon, in the test with HS 578T breast and with HCC-2998 colon were 0.159 µM, 15.9 µM and 0.602 µM, respectively. Further, the TGI in the test with PC-3 prostate is > 100 µM; in the test with HL-60(TB) leukemia it was 78 µM; with SK-MEL-5 melanoma it was 58 µM; in the test with UACC-257 melanoma, > 100 µM; with NCI-H460 lung, > 100 µM; in the test on OVCAR-8 ovarian, > 100 µM. Further, the TGI in the test with COLO 205 colon, with HS 578T breast and in the test with HCC-2998 colon was > 100 µM in each case.
As for `C[n+]1c(/C=C\c2ccc(Cl)cc2)ccc2ccccc21`, the GI50 with PC-3 prostate was 13.3 µM; in the test with HL-60(TB) leukemia, 24.2 µM; in the test with SK-MEL-5 melanoma it was 5.56 µM; with UACC-257 melanoma it was 16.2 µM; in the test on NCI-H460 lung, 32.7 µM; in the test with OVCAR-8 ovarian, 6.82 µM. Moreover, the GI50 was 4.28 µM in the test on COLO 205 colon, 27.4 µM with HS 578T breast and 31.6 µM in the test on HCC-2998 colon. Further, the TGI with PC-3 prostate was > 100 µM; in the test with HL-60(TB) leukemia, > 100 µM; with SK-MEL-5 melanoma, 18 µM; with UACC-257 melanoma, 62.4 µM; in the test with NCI-H460 lung, > 100 µM; with OVCAR-8 ovarian, 91.1 µM. The figures for the TGI with COLO 205 colon, in the test with HS 578T breast and in the test with HCC-2998 colon were 24.4 µM, > 100 µM and > 100 µM, respectively.
As to `CCCCCCCCCCCCCC(=O)O[C@H]1CC[C@H](NC(=O)[C@H](OC)[C@H](O)[C@@H](O)[C@H](O)/C=C/C(C)C)C(=O)NC1`, the GI50 with PC-3 prostate is 0.0152 µM; in the test with OVCAR-8 ovarian it was 0.00181 µM; in the test on HS 578T breast, 0.0112 µM; in the test on HOP-92 NSCLC it was 0.554 µM. Besides, the TGI was 51.2 µM and 12.7 µM in the test with PC-3 prostate; 1.37 µM and 0.25 µM in the test on SK-MEL-5 melanoma; 27.2 µM and 20.4 µM with UACC-257 melanoma; 20.5 µM and 14.3 µM in the test with OVCAR-8 ovarian; 0.00374 µM and 0.0154 µM with COLO 205 colon; 4.12 µM with HOP-92 NSCLC.
On to `Oc1ccccc1-c1nn(CNc2cccc(Cl)c2)c(=S)o1`, for which the GI50 with PC-3 prostate is 32.9 µM; with SK-MEL-5 melanoma, 89.2 µM; with UACC-257 melanoma it was > 100 µM; with NCI-H460 lung, 20.6 µM; with OVCAR-8 ovarian it was > 100 µM; in the test on COLO 205 colon, 53.8 µM. Moreover, the GI50 was 69.1 µM in the test with HS 578T breast and 1.86 µM in the test on HOP-92 NSCLC. In addition, the TGI in the test with PC-3 prostate, with SK-MEL-5 melanoma, with UACC-257 melanoma, in the test on NCI-H460 lung, with OVCAR-8 ovarian and with COLO 205 colon was > 100 µM in each case. The TGI is > 100 µM with HS 578T breast and 31.7 µM in the test on HOP-92 NSCLC.
With `COc1ccc2nc(-c3cc(-c4cc(OC)c(OC)c(OC)c4)n[nH]3)[nH]c2c1`, the GI50 in the test on PC-3 prostate is 1.03 µM; in the test on HL-60(TB) leukemia, 1.69 µM; with SK-MEL-5 melanoma, 0.462 µM; in the test on UACC-257 melanoma it was 1.67 µM; in the test on NCI-H460 lung, 2.64 µM; in the test with OVCAR-8 ovarian, 1.15 µM. Moreover, the GI50 is 1.61 µM with COLO 205 colon, 2.89 µM in the test with HS 578T breast and 3.03 µM with HCC-2998 colon. The TGI was 4.1 µM in the test with PC-3 prostate; 4.81 µM in the test on HL-60(TB) leukemia; 1.77 µM with SK-MEL-5 melanoma; 3.69 µM with UACC-257 melanoma; 8.08 µM in the test with NCI-H460 lung; 3.2 µM in the test on OVCAR-8 ovarian. Further, the TGI in the test with COLO 205 colon was found to be 3.24 µM; with HS 578T breast, 23.2 µM; in the test on HCC-2998 colon it was 10.6 µM.
As to `Cn1c2ccccc2c(=S)c2ccccc21`, the TGI with PC-3 prostate, in the test on SK-MEL-5 melanoma, in the test on UACC-257 melanoma, in the test with NCI-H460 lung, in the test on OVCAR-8 ovarian and in the test with COLO 205 colon was > 100 µM in each case. Besides, the TGI with HS 578T breast, with HCC-2998 colon and with HOP-92 NSCLC was > 100 µM each time.

(Values after PubChem BioAssay (NCI).)
